In patent US20250388576A1, “PYRIDONOPYRIMIDINE DERIVATIVE AS RSK INHIBITOR AND USE THEREOF” (EAST CHINA NORMAL UNIVERSITY, priority 2022, published 2025) one finds IC50 data, which are given here for 19 compounds.

One may read the IC50 as the midpoint of a concentration-inhibition curve.

The target of assay [1] is RSK4 kinase (Homo sapiens (Human), UniProt Q9UK32). In words: In vitro enzyme activity assay (Kinase-Glo), RSK4. In kind it is biochemical. The conditions noted are these: 10 μM ATP, 30° C., 40 minutes.
Chain of RSK4 kinase (Q9UK32 whole entry): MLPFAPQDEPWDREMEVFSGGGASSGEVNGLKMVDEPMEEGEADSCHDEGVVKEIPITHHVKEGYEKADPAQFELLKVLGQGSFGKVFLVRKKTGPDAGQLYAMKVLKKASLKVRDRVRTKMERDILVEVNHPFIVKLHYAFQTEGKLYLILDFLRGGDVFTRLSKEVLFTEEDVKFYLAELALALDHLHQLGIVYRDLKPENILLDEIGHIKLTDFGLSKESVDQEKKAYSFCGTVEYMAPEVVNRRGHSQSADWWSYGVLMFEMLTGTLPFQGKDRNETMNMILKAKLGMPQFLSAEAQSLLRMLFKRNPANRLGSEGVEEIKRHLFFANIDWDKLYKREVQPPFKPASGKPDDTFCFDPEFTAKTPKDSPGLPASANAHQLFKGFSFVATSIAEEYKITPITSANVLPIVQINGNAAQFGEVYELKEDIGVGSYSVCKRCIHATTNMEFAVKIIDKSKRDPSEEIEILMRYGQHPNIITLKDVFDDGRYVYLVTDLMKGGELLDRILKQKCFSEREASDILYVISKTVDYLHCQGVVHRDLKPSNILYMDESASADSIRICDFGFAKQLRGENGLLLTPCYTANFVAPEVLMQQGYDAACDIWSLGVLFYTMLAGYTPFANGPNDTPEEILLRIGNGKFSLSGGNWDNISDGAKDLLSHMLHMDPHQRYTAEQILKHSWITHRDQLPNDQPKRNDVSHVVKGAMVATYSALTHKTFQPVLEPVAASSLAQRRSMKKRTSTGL
Method: The experiment for testing the in vitro inhibiting effect of the compound provided in the present invention on the activity of RSK4 kinase is as follows. The method for RSK1-3 was the same as that for RSK4 (Kashem, M. A. et al. J. Biomol. Screen. 12, 70-83):
All enzyme reactions were carried out at 30° C. for 40 minutes. 50 μL of reaction mixture contains 40 mM Tris, pH 7.4, 10 mM MgCl2, 0.1 mg/mL BSA, 1 mM DTT, 10 μM ATP, 0.2 μg/mL kinase, and 100 μM lipid substrate. The compound was diluted in 10% DMSO, and 5 μL of the diluted solution was added to 50 μL of the reaction, so that the final concentration of DMSO in all reactions was 1%. Kinase-Glo reagent was added to the reaction system for detection. Kinase activity was measured by quantifying the amount of ATP remaining in the solution after the kinase reaction. IC50 values were calculated using nonlinear regression, and each experiment was repeated more than twice.
Assay [2] has as its system renal cancer cells ACHN. In words: Anti-cell proliferation activity (CCK8), ACHN. Type of assay: cell-based. The conditions noted are these: Homo sapiens, 72 hours.
Method: (§1) The specific experimental procedure is as follows: cells were digested and centrifuged at 1000 rpm for 3 minutes. The cell density was adjusted to 3×10^4 cells/mL. 3000 cells per well was seeded, and the outermost ring was filled with culture medium. The plate was placed in a 37° C., 5% CO2 incubator overnight to allow cell attachment. The 10 mM stock solution was diluted to 100 μM with the culture medium, and then further diluted in three-fold with the culture medium containing 1% DMSO to prepare eight concentration gradients. 10 μL of the compound was added to each well, and the remaining volume was filled with 10 μL of culture medium containing 1% DMSO. After culturing the cells for 72 hours, 10 μL of CCK8 reagent was added to each well. […] Cell viability (%)=(OD of drug-treated cells−OD of blank)/(OD of control cells−OD of blank)×100%. After the experiment was independently repeated for three times, the variance was calculated and statistical graphs were created to analyze the effect of the drug on cell viability. IC50 values were calculated by fitting with GraphPad Prism software.
For assay [3], the system named is esophageal squamous cell carcinoma cells TE10. Briefly: Anti-cell proliferation activity (CCK8), TE10. In kind it is cell-based. The following applies: Homo sapiens, TE-10, 72 hours.
Method: as §1
Assay [4] concerns esophageal squamous cell carcinoma cells KYSE150. In words: Anti-cell proliferation activity (CCK8), KYSE150. The conditions noted are these: Homo sapiens, KYSE-150, 72 hours. In kind it is cell-based.
Method: as §1
In assay [5] the test system is esophageal squamous cell carcinoma cells KYSE510. Briefly: Anti-cell proliferation activity (CCK8), KYSE510. The conditions noted are these: Homo sapiens, KYSE-510, 72 hours. In kind it is cell-based.
Method: as §1

Consider `Cc1c(Br)c(=O)n(C2CCCC2)c2nc(Nc3ccc4[nH]ncc4c3)ncc12` [Compound 011, 2-((1H-indazol-5-yl)amino)-6-bromo-8-cyclopentyl-5-methylpyrido[2,3-d]pyrimidin-7(8H)-one], for which half-maximal inhibition in assay [1] (IC50) was put at 44 ± 7 nM. On the same count and under the same terms, the value for `Cc1cc(=O)n(C2CCCC2)c2nc(Nc3ccc4[nH]c(=O)oc4c3)ncc12` [Compound 008, 6-((8-Cyclopentyl-5-methyl-7-oxo-7,8-dihydropyrido[2,3-d]pyrimidin-2-yl)amino)benzo[d]oxazol-2(3H)-one] was 10800 ± 2030 nM. The same measure, in the same setting: the figure for `Cc1cc(=O)n(C2CCCC2)c2nc(Nc3cnc4[nH]ncc4c3)ncc12` [Compound 013, 2-((1H-pyrazolo[3,4-b]pyridin-5-yl)amino)-8-cyclopentyl-5-methylpyrido[2,3-d]pyrimidin-7(8H)-one] is 39 ± 4 nM.

Regarding `Cc1cc(=O)n(C2CCC(F)(F)C2)c2nc(Nc3cc(F)c4[nH]ncc4c3)ncc12` (stereo not drawn) [Compound 016, 8-(3,3-Difluorocyclopentyl)-2-((7-fluoro-1H-indazol-5-yl)amino)-5-methylpyrido[2,3-d]pyrimidin-7(8H)-one], the IC50 in assay [2] was 870 ± 370 nM; in assay [3], 1700 ± 1430 nM; in assay [1] it was 13 ± 3 nM. Compound `Cc1cc(=O)n(C2CCCC2)c2nc(Nc3ccc4[nH]nc(F)c4c3)ncc12` [Compound 012, 8-Cyclopentyl-2-[(3-fluoro-1H-indazol-5-yl)amino]-5-methylpyrido[2,3-d]pyrimidin-7(8H)-one] yielded an IC50 in assay [1] of 280 ± 54 nM. Same read-out and setting: the value for `Cc1cc(=O)n(C2CCCC2)c2nc(Nc3ccc4[nH]nnc4c3)ncc12` [Compound 004, 2-((1H-benzo[d][1,2,3]triazol-5-yl)amino)-8-cyclopentyl-5-methylpyrido[2,3-d]pyrimidin-7(8H)-one] was 3020 ± 673 nM.

As for `Cc1cc(=O)n(C2CCCC2)c2nc(Nc3ccc4c(c3)CC(=O)N4)ncc12` [Compound 007, 8-Cyclopentyl-5-methyl-2-((2-oxoindolin-5-yl)amino)pyrido[2,3-d]pyrimidin-7(8H)-one], the IC50 in assay [2] was 1940 ± 70 nM; in assay [1] it was 17 ± 6 nM; in assay [4], 4650 ± 2110 nM; in assay [5], 6150 ± 270 nM.

Take `Cc1cc(=O)n(C2CCC(F)(F)C2)c2nc(Nc3ccc4c(c3)CC(=O)N4)ncc12` (stereo not drawn) [Compound 015, 8-(3,3-Difluorocyclopentyl)-5-methyl-2-((2-oxoindolin-5-yl)amino)pyrido[2,3-d]pyrimidin-7(8H)-one]: the IC50 in assay [1] is 46 ± 4 nM. For `Cc1cc(=O)n(C2CCC(F)(F)C2)c2nc(Nc3cnc4[nH]ncc4c3)ncc12` (stereo not drawn) [Compound 017, 2-((1H-pyrazolo[3,4-b]pyridin-5-yl)amino)-8-(3,3-difluorocyclopentyl)-5-methylpyrido[2,3-d]pyrimidin-7(8H)-one], in assay [1], the IC50 was 12 ± 2 nM. Take `Cc1cc(=O)n(C2CCCC2)c2nc(Nc3ccc(F)c4[nH]ncc34)ncc12` [Compound 010]: 180 ± 16 nM corresponded to half-maximal inhibition in assay [1] (IC50). The same measure, in the same setting: the value for `Cc1cc(=O)n(C2CCCCCC2)c2nc(Nc3ccc4[nH]ncc4c3)ncc12` [Compound 020, 2-((1H-indazol-5-yl)amino)-5-methyl-8-(cycloheptyl)pyrido[2,3-d]pyrimidin-7(8H)-one] was 201 ± 77 nM. As to `Cc1cc(=O)n(C2CCCC2)c2nc(Nc3cc(F)c(O)c(F)c3)ncc12` [Compound 003, 8-Cyclopentyl-2-((3,5-difluoro-4-hydroxyphenyl)amino)-5-methylpyrido[2,3-d]pyrimidin-7(8H)-one], the IC50 amounted to 3100 ± 110 nM in assay [2], 12 ± 3 nM in assay [1], 4080 ± 1120 nM in assay [4] and 3130 ± 1160 nM in assay [5]. As to `CC(=O)N(c1cc(F)c(O)c(F)c1)c1ncc2c(C)cc(=O)n(C3CCCC3)c2n1` [Compound 002, N-(8-Cyclopentyl-5-methyl-7-oxo-7,8-dihydropyrido[2,3-d]pyrimidin-2-yl)-N-(3,5-difluoro-4-hydroxyphenyl)acetamide], it took 139 ± 19 nM to reach half-maximal inhibition in assay [1] (IC50). `CC(C)CCN1c2nc(Nc3cc(F)c(O)c(F)c3)ncc2N(C)C(=O)C1C` (stereo not drawn) [BI-D1870, reference compound]: the IC50 in assay [2] is over 10000 nM; in assay [3] it was 3860 ± 760 nM; in assay [4] it was 20200 ± 1560 nM; in assay [5], 11700 ± 2580 nM. Compound `Cc1cc(=O)n(C2CCOC2)c2nc(Nc3ccc4[nH]ncc4c3)ncc12` (stereo not drawn) [Compound 021, 2-((1H-indazol-5-yl)amino)-5-methyl-8-(tetrahydrofuran-3-yl)pyrido[2,3-d]pyrimidin-7(8H)-one] displayed an IC50 in assay [1] of 392 ± 162 nM. Consider `Cc1cc(=O)n(C2CCC(O)C2)c2nc(Nc3ccc4[nH]ncc4c3)ncc12` (stereo not drawn) [Compound 018, 2-((1H-indazol-5-yl)amino)-8-(3-hydroxycyclopentyl)-5-methylpyrido[2,3-d]pyrimidin-7(8H)-one], for which half-maximal inhibition in assay [1] (IC50) was put at 30 ± 12 nM. As for `Cc1cc(=O)n(C2CCCCC2)c2nc(Nc3ccc4[nH]ncc4c3)ncc12` [Compound 019, 2-((1H-indazol-5-yl)amino)-5-methyl-8-(cyclohexyl)pyrido[2,3-d]pyrimidin-7(8H)-one], in assay [1], half-maximal inhibition (IC50) was put at 86 ± 41 nM. Same read-out and setting: the value for `Cc1c(Br)c(=O)n(C2CCCC2)c2nc(Nc3ccc4c(c3)CC(=O)N4)ncc12` [Compound 014, 6-Bromo-8-cyclopentyl-5-methyl-2-(2-oxoindolin-5-ylamino)pyrido[2,3-d]pyrimidin-7(8H)-one] was 214 ± 20 nM.

As for `Cc1cc(=O)n(C2CCCC2)c2nc(Nc3cc(F)c4[nH]ncc4c3)ncc12` [Compound 009, 8-Cyclopentyl-2-((7-fluoro-1H-indazol-5-yl)amino)-5-methylpyrido[2,3-d]pyrimidin-7(8H)-one], in assay [1], half-maximal inhibition (IC50) required 39 ± 8 nM.
